Test results: US20110224215A1, “PRE-SURGICAL TREATMENT” (GALDERMA LABORATORIES, INC., priority 2007, published 2011)

Assays:
facial skin = details: 0.10% in a gel formulation, applied to facial skin fifteen minutes prior to shaving
Text: Fifteen minutes prior to shaving, a person applies 0.10% brimonidine tartrate in a gel formulation to the facial skin where they will shave.

[1] = test system: area of skin where the incision will be made; details: bandage soaked in a solution of 0.25%, applied thirty minutes prior to surgery, removed immediately before incision
Text: Thirty minutes prior to undergoing surgery for an appendectomy, a bandage that is soaked in a solution of 0.25% brimonidine is applied to the area of skin where the incision will be made. The bandage is removed immediately before the incision is made.

[2] = test system: patients undergoing LASIK surgery; details: prophylactic dosages prior to LASIK surgery for primary myopia/myopic astigmatism or hyperopic astigmatism; cited from earlier work

Brc1c(N=C2NCCN2)ccc2nccnc12.O=C(O)C(O)C(O)C(=O)O [brimonidine tartrate, 5-bromo-6-(2-imidazolidinylideneamino) quinoxaline L-tartrate]
bleeding from cuts while shaving (facial skin): will prevent excessive bleeding

Brc1c(N=C2NCCN2)ccc2nccnc12 [brimonidine, 5-bromo-6-(2-imidazolidinylideneamino)quinoxaline]
bleeding and bruising following the surgical procedure [1]: will significantly reduce bleeding and bruising
hyperemia [2]: less hyperemia
occurrence of subconjunctival hemorrhage [2]: less occurrence
